ChEMBL document CHEMBL1671734, “An ertapenem-resistant extended-spectrum-beta-lactamase-producing Klebsiella pneumoniae clone carries a novel OmpK36 porin variant” (2010)
≈ marks a conversion by molar mass, not a printed value.

Assays:
Format in all cases: functional
Klebsiella pneumoniae [1] = test: Antimicrobial activity against ESBL-positive Klebsiella pneumoniae 18260 by microdilution method
Klebsiella pneumoniae [2] = test: Antimicrobial activity against ESBL-positive Klebsiella pneumoniae 17049 harboring porin OmpK36V mutant gene by microdilution method
Klebsiella pneumoniae [3] = test: Antimicrobial activity against ESBL-positive Klebsiella pneumoniae 11932 harboring porin OmpK36 gene by microdilution method
Klebsiella pneumoniae [4] = test: Antimicrobial activity against ESBL-positive Klebsiella pneumoniae 50748 harboring porin OmpK36 gene by microdilution method
Klebsiella pneumoniae [5] = test: Antimicrobial activity against ESBL-positive Klebsiella pneumoniae 29459 harboring porin OmpK36 gene by microdilution method
Klebsiella pneumoniae [6] = test: Antimicrobial activity against ESBL-positive Klebsiella pneumoniae 16830 harboring porin OmpK36 gene by microdilution method
Klebsiella pneumoniae [7] = test: Antimicrobial activity against ESBL-positive Klebsiella pneumoniae 16855 harboring porin OmpK36 and OmpK35 genes by Etest by microdilution method
Klebsiella pneumoniae [8] = test: Antimicrobial activity against ESBL-positive Klebsiella pneumoniae 18260 harboring pSHA2-encoded porin OmpK36 gene by microdilution method
Klebsiella pneumoniae [9] = test: Antimicrobial activity against ESBL-positive Klebsiella pneumoniae 17829 by microdilution method
Klebsiella pneumoniae [10] = test: Antimicrobial activity against ESBL-negative Klebsiella pneumoniae 299332 harboring porin OmpK36 gene by microdilution method
Klebsiella pneumoniae [11] = test: Antimicrobial activity against ESBL-positive Klebsiella pneumoniae 69036 harboring porin OmpK36V mutant gene by microdilution method
Klebsiella pneumoniae [12] = test: Antimicrobial activity against ESBL-positive Klebsiella pneumoniae 25008 by microdilution method
Klebsiella pneumoniae [13] = test: Antimicrobial activity against ESBL-positive Klebsiella pneumoniae 31750 harboring porin OmpK36 gene by microdilution method
Klebsiella pneumoniae [14] = test: Antimicrobial activity against ESBL-positive Klebsiella pneumoniae 17834 harboring porin OmpK36V mutant gene by microdilution method
Klebsiella pneumoniae [15] = test: Antimicrobial activity against ESBL-positive Klebsiella pneumoniae 18918 harboring porin OmpK36V mutant gene by microdilution method
Klebsiella pneumoniae [16] = test: Antimicrobial activity against ESBL-positive Klebsiella pneumoniae 17829 harboring pSHA2-encoded porin OmpK36 gene by microdilution method
Klebsiella pneumoniae [17] = test: Antimicrobial activity against ESBL-positive Klebsiella pneumoniae 18567 harboring porin OmpK36V mutant gene by microdilution method
Klebsiella pneumoniae [18] = test: Antimicrobial activity against ESBL-positive Klebsiella pneumoniae 26077 harboring porin OmpK36V mutant gene by microdilution method
Klebsiella pneumoniae [19] = test: Antimicrobial activity against ESBL-positive Klebsiella pneumoniae 6267 harboring porin OmpK36V mutant gene by microdilution method
Klebsiella pneumoniae [20] = test: Antimicrobial activity against ESBL-negative Klebsiella pneumoniae 30018 harboring porin OmpK35 gene by microdilution method
Klebsiella pneumoniae [21] = test: Antimicrobial activity against ESBL-positive Klebsiella pneumoniae 17830 harboring porin OmpK36V mutant gene by microdilution method
Klebsiella pneumoniae [22] = test: Antimicrobial activity against ESBL-positive Klebsiella pneumoniae 71697 harboring porin OmpK36V mutant gene by microdilution method
Klebsiella pneumoniae [23] = test: Antimicrobial activity against ESBL-positive Klebsiella pneumoniae 287942 harboring porin OmpK36 gene by microdilution method
Klebsiella pneumoniae [24] = test: Antimicrobial activity against ESBL-positive Klebsiella pneumoniae 29830 harboring porin OmpK36V mutant gene by microdilution method
Klebsiella pneumoniae [25] = test: Antimicrobial activity against ESBL-positive Klebsiella pneumoniae 69928 harboring porin OmpK36V mutant gene by microdilution method
Klebsiella pneumoniae [26] = test: Antimicrobial activity against ESBL-positive Klebsiella pneumoniae 19039 harboring porin OmpK36V mutant gene by microdilution method

Which results are given for `C[C@@H](O)[C@H]1C(=O)N2C(C(=O)O)=C(S[C@@H]3CN[C@H](C(=O)Nc4cccc(C(=O)O)c4)C3)[C@H](C)[C@H]12` [ERTAPENEM]?
MIC (Klebsiella pneumoniae [1]): 128 µg/mL (≈ 269 µM); MIC (Klebsiella pneumoniae [2]): 8 µg/mL (≈ 16.8 µM); MIC (Klebsiella pneumoniae [3]): 0.19 µg/mL (≈ 0.4 µM); MIC (Klebsiella pneumoniae [4]): 0.25 µg/mL (≈ 0.526 µM); MIC (Klebsiella pneumoniae [5]): 0.25 µg/mL (≈ 0.526 µM); MIC (Klebsiella pneumoniae [6]): 0.125 µg/mL (≈ 0.263 µM); MIC (Klebsiella pneumoniae [7]): 0.094 µg/mL (≈ 0.198 µM); MIC (Klebsiella pneumoniae [8]): 16 µg/mL (≈ 33.6 µM); MIC (Klebsiella pneumoniae [9]): 128 µg/mL (≈ 269 µM); MIC (Klebsiella pneumoniae [10]): 0.016 µg/mL (≈ 0.0336 µM); MIC (Klebsiella pneumoniae [11]): 6 µg/mL (≈ 12.6 µM); MIC (Klebsiella pneumoniae [12]): 16 µg/mL (≈ 33.6 µM); MIC (Klebsiella pneumoniae [13]): 0.125 µg/mL (≈ 0.263 µM); MIC (Klebsiella pneumoniae [14]): 6 µg/mL (≈ 12.6 µM); MIC (Klebsiella pneumoniae [15]): 8 µg/mL (≈ 16.8 µM); MIC (Klebsiella pneumoniae [16]): 16 µg/mL (≈ 33.6 µM); MIC (Klebsiella pneumoniae [17]): 6 µg/mL (≈ 12.6 µM); MIC (Klebsiella pneumoniae [18]): 6 µg/mL (≈ 12.6 µM); MIC (Klebsiella pneumoniae [19]): 4 µg/mL (≈ 8.41 µM); MIC (Klebsiella pneumoniae [20]): 0.023 µg/mL (≈ 0.0484 µM); MIC (Klebsiella pneumoniae [21]): 8 µg/mL (≈ 16.8 µM); MIC (Klebsiella pneumoniae [22]): 8 µg/mL (≈ 16.8 µM); MIC (Klebsiella pneumoniae [23]): 0.19 µg/mL (≈ 0.4 µM); MIC (Klebsiella pneumoniae [24]): 6 µg/mL (≈ 12.6 µM); MIC (Klebsiella pneumoniae [25]): 6 µg/mL (≈ 12.6 µM); MIC (Klebsiella pneumoniae [26]): 8 µg/mL (≈ 16.8 µM)
